Assay results taken from patent US10597388B2, “Pyridazinone herbicides” (FMC CORPORATION, priority 2014, dated 2020).

Tests used:
Assay type in all cases: in vivo
[1] = test system: wheat (Triticum aestivum); experiment: Test A greenhouse herbicide test, pre- and postemergence; details: Postemergence
Method in brief: (§1)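 Seeds sown in loam–sand blend got a preemergence directed soil spray of compound in non-phytotoxic solvent with surfactant. Postemergence treatment was given at 2–10 cm, one- to two-leaf stage. After ~10 d in greenhouse, injury was rated visually vs untreated controls, 0 (no effect) to 100 (complete control).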

[2] = test system: foxtail, giant (giant foxtail, Setaria faberii); experiment: as above
Method in brief: as §1

corn (Zea mays) [3] = experiment: as above; details: Postemergence
Method in brief: as §1

[4] = test system: ryegrass, Italian (Italian ryegrass, Lolium multiflorum); experiment: as above
Method in brief: as §1

[5] = test system: velvetleaf (Abutilon theophrasti); experiment: Test C greenhouse herbicide test, pre- and postemergence; details: Preemergence; for Plant response rating, Velvetleaf: scale 0 to 100, 0 is no effect, 100 is complete control
Method in brief: (§2)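 Each species was treated both before emergence, in a loam–sand soil mix, and after emergence, as 1- to 4-leaf seedlings in peat-based potting medium. Plants stayed in the greenhouse 13 to 15 d, then were scored from 0 (no effect) to 100 (complete control) relative to controls.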

soybean (Glycine max) = experiment: as above; details: Preemergence; for Plant response rating, Soybean: scale 0 to 100, 0 is no effect, 100 is complete control
Method in brief: as §2

[6] = test system: pigweed (Amaranthus retroflexus); experiment: as above; details: Preemergence; for Plant response rating, Pigweed: scale 0 to 100, 0 is no effect, 100 is complete control
Method in brief: as §2

corn (Zea mays) [7] = experiment: as above; details: Preemergence; for Plant response rating, Corn: scale 0 to 100, 0 is no effect, 100 is complete control
Method in brief: as §2

[8] = test system: blackgrass (Alopecurus myosuroides); experiment: as above; details: Preemergence; for Plant response rating, Blackgrass: scale 0 to 100, 0 is no effect, 100 is complete control
Method in brief: as §2

[9] = test system: waterhemp (common waterhemp, Amaranthus rudis); experiment: as above; details: Preemergence; for Plant response rating, Waterhemp: scale 0 to 100, 0 is no effect, 100 is complete control
Method in brief: as §2

[10] = test system: nutsedge, yellow (yellow nutsedge, Cyperus esculentus); experiment: as above; details: Preemergence; for Plant response rating, Nutsedge, Yellow: scale 0 to 100, 0 is no effect, 100 is complete control
Method in brief: as §2

[11] = 125 g ai/ha, 0 to 100 scale where 0 is no effect and 100 is complete control
[12] = 500 g ai/ha, visual rating after approx. 10 d, 0 to 100 scale (0 no effect, 100 complete control)
[13] = Postemergence, 125 g ai/ha, 0 to 100 scale where 0 is no effect and 100 is complete control
[14] = Postemergence, 500 g ai/ha, visual rating after approx. 10 d, 0 to 100 scale (0 no effect, 100 complete control)
[15] = Preemergence, 125 g ai/ha, 0 to 100 scale where 0 is no effect and 100 is complete control
[16] = Preemergence, 500 g ai/ha, 0 to 100 scale where 0 is no effect and 100 is complete control
[17] = 250 g ai/ha, scale 0 to 100, 0 no effect, 100 complete control

CC(=O)Oc1c(Cl)nn(C)c(=O)c1-c1c(C)sc2ccc(Cl)cc12 [Compound 116]
Plant response rating, Wheat [1, 11]: 20
Plant response rating, Wheat [1, 12]: 50
Plant response rating, Foxtail, Giant [2, 13]: 70
Plant response rating, Foxtail, Giant [2, 14]: 100
Foxtail, Giant plant response rating [2, 15]: 80
Plant response rating, Foxtail, Giant [2, 16]: 100
Plant response rating, Corn (corn (Zea mays) [3]; [11]): 0
Plant response rating, Corn (corn (Zea mays) [3]; [12]): 30
Plant response rating, Ryegrass, Italian [4, 13]: 90
Plant response rating, Ryegrass, Italian [4, 14]: 100
Ryegrass, Italian plant response rating [4, 15]: 80
Plant response rating, Ryegrass, Italian [4, 16]: 100
Plant response rating, Velvetleaf ([5]; 31 g ai/ha): 70
Plant response rating, Velvetleaf ([5]; 62 g ai/ha): 85
Plant response rating, Velvetleaf ([5]; 125 g ai/ha): 100
Velvetleaf plant response rating [5, 17]: 100
Plant response rating, Soybean (soybean (Glycine max); 62 g ai/ha): 0
Plant response rating, Soybean (soybean (Glycine max); 125 g ai/ha): 0
Soybean plant response rating (soybean (Glycine max); [17]): 5
Plant response rating, Pigweed ([6]; 31 g ai/ha): 95
Plant response rating, Pigweed ([6]; 62 g ai/ha): 100
Plant response rating, Pigweed ([6]; 125 g ai/ha): 100
Pigweed plant response rating [6, 17]: 100
Plant response rating, Corn (corn (Zea mays) [7]; 31 g ai/ha): 0
Plant response rating, Corn (corn (Zea mays) [7]; 62 g ai/ha): 0
Plant response rating, Corn (corn (Zea mays) [7]; 125 g ai/ha): 60
Corn plant response rating (corn (Zea mays) [7]; [17]): 25
Plant response rating, Blackgrass ([8]; 31 g ai/ha): 0
Plant response rating, Blackgrass ([8]; 62 g ai/ha): 5
Plant response rating, Blackgrass ([8]; 125 g ai/ha): 30
Blackgrass plant response rating [8, 17]: 35
Plant response rating, Waterhemp ([9]; 31 g ai/ha): 55
Plant response rating, Waterhemp ([9]; 62 g ai/ha): 70
Plant response rating, Waterhemp ([9]; 125 g ai/ha): 80
Waterhemp plant response rating [9, 17]: 100
Plant response rating, Nutsedge, Yellow ([10]; 31 g ai/ha): 0
Plant response rating, Nutsedge, Yellow ([10]; 62 g ai/ha): 35
Plant response rating, Nutsedge, Yellow ([10]; 125 g ai/ha): 85
Nutsedge, Yellow plant response rating [10, 17]: 95
